Results reported in the OPERA property sets (Mansouri et al. 2018).

Conditions: not given
In the case of `ClCc1ccc2c(c1)OCO2`, the melting point is reported as 20.5 °C. `O=C1c2ccccc2C(=O)C1(CN1CCOCC1)c1ccccc1` gave a melting point of 88 °C. For `CCS(=O)(=O)O`, the melting point was -17 °C. With `S=C=Nc1ccc(Br)cc1` the melting point was 60.5 °C. In the case of `Nc1c(Cl)ccc(Cl)c1C(=O)O`, the melting point is reported as 155 °C. `SC1=NCCCN1` gave a melting point of 211 °C. With `COc1ccc(N=Nc2ccccc2)cc1` the boiling point was 340 °C and the melting point was 56 °C. `Cc1cc(Cl)ccc1OCCCC(=O)O` gave a log10 Koc (L/kg) of 2.73, a log10 vapour pressure (mmHg) of -6.36 and a melting point of 100 °C. In the case of `OCCOCCO`, the boiling point is reported as 246 °C, the log10 vapour pressure (mmHg) is reported as -2.24 and the melting point is reported as -10.4 °C. For the same compound, the ready biodegradability was “readily biodegradable”. For `CCCCCF`, the boiling point was 62.8 °C, the log10 vapour pressure (mmHg) was 2.27 and the melting point was -120 °C. `CCC(C)CC(C)C` (configuration not stated) showed a boiling point of 110 °C, a log10 biodegradation half-life (days) of 0.845 and a log10 vapour pressure (mmHg) of 1.48. For `Clc1ccc(-c2c(Cl)cc(Cl)c(Cl)c2Cl)c(Cl)c1Cl`, the log10 Koa was 10.2 and the log10 vapour pressure (mmHg) was -5.85. For `O=CCCc1ccccc1`, the boiling point was 224 °C. `CCC#N` showed a boiling point of 97.1 °C, a log10 Henry constant (atm·m³/mol) of -4.43 and a log10 Koa of 2.69. For the same compound, the log10 vapour pressure (mmHg) was 1.68 and the melting point was -92.8 °C. Work on `N#CCCN1CCCCC1` yielded a melting point of -6.8 °C. With `CC1CCC(C)C(C)C1C` (configuration not stated) the log10 vapour pressure (mmHg) was 0.117 and the melting point was -75 °C. `CCCCC(CC)CCC` (configuration not stated) gave a boiling point of 164 °C. With `CCCCC[Si](Cl)(Cl)Cl` the boiling point was 172 °C. `CC1CNC(C)CN1` (configuration not stated) showed a boiling point of 163 °C, a log10 vapour pressure (mmHg) of 0.422 and a melting point of 116 °C. With `CCCCCCC(=O)OCCCCC` the boiling point was 245 °C and the melting point was -50 °C. `CCN(CC)c1ccc(C)cc1` showed a boiling point of 229 °C. `CC(C)OC(=O)COc1ccc(Cl)cc1Cl` showed a log10 vapour pressure (mmHg) of -3.63 and a melting point of 5 °C. For `CCCCCC(O)c1ccc(O)c(O)c1` (configuration not stated), the melting point was 109 °C. With `O=C1c2ccccc2C(=O)N1c1ccccc1` the melting point was 210 °C. Compound `O=S1OCCO1` has a boiling point of 173 °C and a melting point of -11 °C. `N#Cc1cc(I)c([O-])c(I)c1.[Na+]` showed a melting point of 360 °C. In the case of `N=C(N)S(=O)O`, the ready biodegradability is reported as “readily biodegradable”. Work on `Brc1ccccc1` yielded a boiling point of 156 °C, a log10 Henry constant (atm·m³/mol) of -2.61 and a log10 Koc (L/kg) of 2.49. For the same compound, the log10 vapour pressure (mmHg) was 0.621, the melting point was -30.6 °C and the ready biodegradability was “not readily biodegradable”. `CCCCCCOC(=O)c1ccccc1C(=O)OCCCCCC` showed a log10 Koc (L/kg) of 4.72, a log10 vapour pressure (mmHg) of -4.85 and a melting point of -58 °C. `CCC1CCCO1` (configuration not stated) showed a boiling point of 109 °C. `Nc1cccc2c1C(=O)c1cccc(N)c1C2=O` gave a melting point of 319 °C. In the case of `O=C(O)c1ccccc1SSc1ccccc1C(=O)O`, the melting point is reported as 288 °C. `CC1(C)CCCC1` showed a boiling point of 87.5 °C, a log10 biodegradation half-life (days) of 1.28 and a log10 vapour pressure (mmHg) of 1.88. For the same compound, the melting point was -69.8 °C. `CC(C)CC(C)N` (configuration not stated) gave a boiling point of 109 °C and a log10 Henry constant (atm·m³/mol) of -4.51. In the case of `BrCc1ccccc1CBr`, the melting point is reported as 95 °C. In the case of `O=C(O)CCCCBr`, the melting point is reported as 39 °C. Work on `Clc1nc(Cl)nc(Cl)n1` yielded a boiling point of 192 °C and a melting point of 154 °C. With `CS(C)=O` the boiling point was 189 °C, the log10 Henry constant (atm·m³/mol) was -8.82 and the log10 Koa was 4.96. For the same compound, the log10 vapour pressure (mmHg) was -0.215, the melting point was 18.5 °C and the ready biodegradability was “not readily biodegradable”. Work on `CC(=O)C=CC=Cc1ccccc1` yielded a melting point of 68 °C. In the case of `Clc1ccc(C(Cl)(Cl)Cl)cc1Cl`, the boiling point is reported as 283 °C and the melting point is reported as 25.8 °C. Compound `BrCC(Br)c1ccccc1` (configuration not stated) has a log10 vapour pressure (mmHg) of -1.97 and a melting point of 75 °C. Compound `C=Cc1cc(C)ccc1C` has a log10 vapour pressure (mmHg) of 0 and a melting point of -35 °C. With `NC1CCC(CC2CCC(N)CC2)CC1` (configuration not stated) the boiling point was 320 °C and the melting point was 15 °C. Compound `CCCCCCCCCCCCCCCCCCCCCCCCCCCCCC` has a boiling point of 450 °C, a log10 biodegradation half-life (days) of 2.24 and a log10 vapour pressure (mmHg) of -10.6. The melting point was 65.8 °C and the ready biodegradability was “readily biodegradable”. For `O=[N+]([O-])c1c(Cl)ccc2ccccc12`, the melting point was 99.5 °C. Compound `CCOC(C)(C)CC` has a boiling point of 102 °C and a log10 vapour pressure (mmHg) of 1.7. With `CCCCCCCCC=CCCCCCCCCCCCCO` the melting point was 35 °C. With `C1CNCCNC1` the boiling point was 169 °C and the melting point was 43.5 °C. For `O=C(Cc1c(Cl)ccc(Cl)c1Cl)[O][Na]`, the log10 Koc (L/kg) was 1.72. `COc1cc(CCC(C)=O)ccc1O` gave a melting point of 40.5 °C. Work on `CCCCNC(N)=O` yielded a melting point of 97 °C. For `CC(C)(C)NCC(O)COc1ccccc1C#N` (configuration not stated), the melting point was 164 °C. Compound `O=C(OCc1ccccc1)c1sc(Cl)nc1C(F)(F)F` has a log10 vapour pressure (mmHg) of -6.53 and a melting point of 52 °C. `c1ncncn1` showed a boiling point of 114 °C and a melting point of 86 °C. Compound `CCC(CC)C(CC)CC` has a boiling point of 164 °C.

Same assay, conditions: fish
In the case of `CCNc1ccc(C)cc1`, the log10 BCF is reported as 0.61. With `Clc1ccc(-c2c(Cl)cc(Cl)c(Cl)c2Cl)c(Cl)c1Cl` the log10 biotransformation half-life (days) was 2.52. Work on `Brc1ccccc1` yielded a log10 BCF of 1.36 and a log10 biotransformation half-life (days) of -1.19. Compound `COP(=S)(OC)Oc1ccc(S(C)=O)c(C)c1` (configuration not stated) has a log10 BCF of 0.12 and a log10 biotransformation half-life (days) of -0.38. For `CS(C)=O`, the log10 BCF was 0.6.
